Reference: patent publication US20150018271A1, “HSP60 DERIVED PEPTIDES AND PEPTIDE ANALOGS FOR SUPPRESSION AND TREATMENT OF NON-AUTOIMMUNE DIABETES” (Yeda Research and Development Co. Ltd., priority 2012, published 2015)
Ends that are not written are not given here.

Experiments:
[1] = test system: male C57BL/N mice on high fat (60%) diet; conditions: any of the DiaPep277 treatments (100-500 μg in intralipid SC or 100 μg in PBS IP), about 16 weeks, FIG. 1
Description: Mice genetically prone to T2D (dp/dp or ob/ob strains, resistant to leptin), and/or healthy C57BL/6 mice induced to develop T2D by a high fat diet are used in vivo to assess the activity of hsp60 peptides and analogs in protecting against or treatment of T2D. […] In the fat diet model, the diet (for example TD.0811 of Harlan™, or D12492 of Research Diets Inc. containing 21% and 34.9% fat respectively) is initiated after weaning and the mice express T2D by 10 weeks of age.
In a typical trial, groups of T2D mice (10 mice per group) are treated early in the course of the disease (about 7-10 weeks of age). […]
Treatment with DiaPep277 or other hsp60 peptides or analogs, is performed once or several times a week with doses of 100-500 micrograms injected subcutaneously (with adjuvant such as intralipid) or IP, IM or IV (without adjuvant). Glucose tolerance, fasting glucose and fasting insulin levels are measured 1-2 months after onset of treatment.
In one specific in-vivo trial, 70 male C57BL/N mice were weighed, measured for blood glucose levels and divided into seven groups, 10 mice/group as following: […]
Animals of groups 2-7 were fed with 60% fat diet of from age of 5 weeks until termination of the trial. […] After about 16 weeks the trial was terminated and Hemoglobin A1C and C-peptide levels were measured using methods known in the art.

NOD mice = conditions: cited from earlier work

VLGGGVALLRVIPALDSLTPANED [DiaPep277]
animal appetite and weight [1]: did not change

p277: specific peptide of human hsp60, one of the immunodominant epitopes in autoimmune diabetes; native cysteines at positions 6 and 11 (VLGGGCALLRCIPALDSLTPANED; p277 peptide; UniProt P10809 437-460, looked up, fragment)
gamma interferon secretion (NOD mice; after treatment): decrease | p277-specific IL-4 and IL-10 secretion (NOD mice; after treatment): increase | p277-specific IgG1 antibodies (NOD mice; after treatment): induced | T-cell reactivity to beta cell antigens (NOD mice; subcutaneous administration): down-regulated | development of diabetes (NOD mice; subcutaneous administration): prevented the development of diabetes
